Assay results reported in patent publication US20250129012A1, “ANTI-INFLAMMATORY AND ANALGESIC COMPOUNDS AND USE THEREOF” (JIANGSU ATOM BIOSCIENCE AND PHARMACEUTICAL CO., LTD., priority 2021, published 2025).
Read-outs that look alike come from different tables or passages of the source. Marks after values point to notes of the source that are not given here.

Assays:
[1] = In vivo pharmacokinetics in SD rats; conditions: Sprague-Dawley, rat; for F / AUC(0-inf) / MRT inf / Vd / clearance / Cmax / Tmax: in vivo; for half-life: plasma, read-out: t1/2 (converted)
Description: Compound stock solution preparation: an appropriate amount of solid powder of the compounds were weighed separately, a certain amount of DMSO was added and 20 mg/mL of stock solution was obtained under vortex ultrasound.
Preparation of test compound for gavage: an appropriate amount of compound stock solution was taken by pipette, a certain amount of Solutol HS15 solution was added, the mixture was vortexed for 1 minute, then a certain amount of saline was added, and 1 mg/mL of solution was obtained after mixing well.
Preparation of test compounds for intravenous injection: an appropriate amount of compound stock solution was taken by pipette separately, a certain amount of Solutol HS15 solution was added, the mixture was vortexed for 1 minute, then a certain amount of physiological saline was added and a solution of 0.5 mg/mL was obtained after mixing well.
The animals were fasted overnight before administration by gavage, and food was given 4 hours after administration, during which they were free to drink. Two groups were set for each test compound, intravenous injection group and oral administration group, and the dose and mode of administration were shown in Table 12 below.
The blood samples were centrifuged at 4° C. for 5 min at 2,000 g to separate the plasma. The plasma samples were analyzed by LC/MS/MS to detect the concentration of each test compound in the plasma samples.
The parameters related to the […] were obtained by calculations with WinNonlin® Professional software.

[2] = tested on: TNF-α; assay: Inflammatory factor experiment B: TNF-α in knee synovial tissue (ELISA); format: in vivo, SD rats; conditions: Rattus norvegicus, po; synovial tissue of knee joints, 48 h after modeling; dose 0.6 mg/kg; read-out: TNF-α percentage decrease %
[3] = Acute toxicity test in mice by single administration; format: in vivo, ICR mice; conditions: both sexes, ICR, mouse, in vivo, po; acute toxicity, mice, single gavage; read-out: Maximum tolerated dose (MTD)
Description: (§1) Compounds 34, 48, 55 and 58 were ground with 0.5% CMC-Na before administration, and prepared into a suspension of the corresponding concentration for gavage, with an administration volume of 0.1 mL/10 g.
(§2) ICR mice, SPF grade, weighing 18-20 g, 6-8 weeks old, were provided by Nantong University. The Laboratory Animal Production License was SCXK (Su) 2016-0010 and Laboratory Animal Use License was SYXK (Su) 2017-0035.
(§3) After overnight fasting, the drug was administered once by gavage in a volume of 0.1 mL/10 g. The normal group was given the corresponding volume of 0.5% CMC-Na solution according to body weight. The state of the animal was observed after administration, the animals were weighed daily and the number of deaths was recorded for 14 consecutive days.

[4] = tested on: ICR mice; assay: as above; format: in vivo; conditions: 14 days, deaths/animals
Description: as §1, §2, §3

[5] = tested on: IL-1β; assay: Inflammatory factor experiment B: IL-1β in knee synovial tissue (ELISA); format: in vivo, SD rats; conditions: Rattus norvegicus, po; synovial tissue of knee joints, 48 h after modeling; dose 0.6 mg/kg; read-out: IL-1β percentage decrease %
[6] = tested on: gouty arthritis rats (sodium urate, right ankle and knee joint cavities); assay: Pharmacodynamics experiment B on gouty arthritis rats: ankle swelling rate; format: in vivo, SD rats; conditions: Rattus norvegicus, po, dose 0.6 mg/kg gavage, read-out: Swelling rate (ankle)
How it was run: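 Male SD rats dosed by gavage at 0.6 mg/kg (0.5% CMC-Na suspension) daily for 7 days before and 3 days after injection of 0.2 mL sodium urate solution into right ankle and knee joints. Ankle circumference measured before and 2-48 h after modeling; swelling rate = swelling degree/baseline ×100%, mean values.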

[7] = tested on: IL-6; assay: Inflammatory factor experiment B: IL-6 in knee synovial tissue (ELISA); format: in vivo, SD rats; conditions: Rattus norvegicus, po; synovial tissue of knee joints, 48 h after modeling; dose 0.6 mg/kg; read-out: IL-6 percentage decrease %
[8] = tested on: gouty arthritis rats (sodium urate, right ankle and knee joint cavities); assay: Pharmacodynamics experiment B on gouty arthritis rats: gait score; format: in vivo, SD rats; conditions: for Gait Score: dose 0.6 mg/kg gavage, mean; for Gait versus model group, in words: compounds 0.6 mg/kg, colchicine 0.6 and 1.2 mg/kg
How it was run: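 Male SD rats (180-220 g) received test compounds by gavage as 0.5% CMC-Na suspensions, once daily for 7 days before modeling and for 3 days afterward. Gouty arthritis was induced by injecting 0.2 mL sodium urate solution into the right ankle and knee joint cavities. Gait was graded 0-3 using modified Coderre criteria, and group mean scores were compared with the model group by ANOVA-Dunnett T-test (P<0.05).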

[9] = Intravenous injection - 1 mg/kg

Row | Structure (SMILES) | F ([1]; 10 mg/kg) | AUC(0-inf) ([1]; iv, 1 mg/kg) | MRT inf ([1]; iv, 1 mg/kg) | Vd ([1]; iv, 1 mg/kg) | clearance ([1]; iv, 1 mg/kg) | AUC(0-inf) ([1]; po, 10 mg/kg) | Cmax ([1]; po, 10 mg/kg) | MRT inf ([1]; po, 10 mg/kg) | Tmax ([1]; po, 10 mg/kg) | half-life ([1]; po, Gavage - 10 mg/kg) | half-life [1, 9] | inhibition in vivo at 0.6 mg/kg [2] | MTD at 14 days [3] | Mortality rate ([4]; single gavage dose 50 mg/kg) | Mortality rate ([4]; single gavage dose 100 mg/kg) | Mortality rate ([4]; single gavage dose 400 mg/kg) | Mortality rate ([4]; single gavage dose 600 mg/kg) | inhibition in vivo at 0.6 mg/kg [5] | change in vivo at 0.6 mg/kg ([6]; 2 h) | inhibition in vivo at 0.6 mg/kg [7] | further results
1 | COc1cc2c(c(OC)c1OC)-c1ccc(C(=O)Nc3ccccc3)c(=O)cc1[C@@H](NC(C)=O)CC2 [Compound 58, (S)-7-acetamido-1,2,3-trimethoxy-N-phenyl-9-oxo-5,6,7,9-tetrahydrobenzo[a]heptalen-10-carboxamide] | 109% | 1390 ng·h/mL | 2.04 h | 1.44 L/kg | 12.1 mL/min/kg | 15100 ng·h/mL | 2040 ng/mL | 4.58 h | 2.67 h | 2.22 h | 1.92 h | 80.5% | > 600 mg/kg | 0/6 | 0/6 | 0/6 | 0/6 | 87.5% | 6.48% | 86.7% | change in vivo at 0.6 mg/kg ([6]; 4 h): 13.8%; change in vivo at 0.6 mg/kg ([6]; 8 h): 17.2%; change in vivo at 0.6 mg/kg ([6]; 10 h): 20.4%; change in vivo at 0.6 mg/kg ([6]; 24 h): 18.1%; change in vivo at 0.6 mg/kg ([6]; 48 h): 8.42%; Gait Score ([8]; 2 h): 0; Gait Score ([8]; 4 h): 0*; Gait Score ([8]; 8 h): 0.3; Gait Score ([8]; 10 h): 0.2**; Gait Score ([8]; 24 h): 0; Gait Score ([8]; 48 h): 0; Gait versus model group, in words [8]: significant improvement in gait occurred at different time points
2 | COC(=O)c1ccc2c(cc1=O)[C@@H](NC(C)=O)CCc1cc(OC)c(OC)c(OC)c1-2 [Compound 34, methyl (S)-7-acetamido-1,2,3-trimethoxy-9-oxo-5,6,7,9-tetrahydrobenzo[a]heptalen-10-carboxylate] |  |  |  |  |  |  |  |  |  |  |  | 82.9% | > 600 mg/kg | 0/6 | 0/6 | 0/6 | 0/6 | 93.1% | 3.98% | 115% | change in vivo at 0.6 mg/kg ([6]; 4 h): 8.32%; change in vivo at 0.6 mg/kg ([6]; 8 h): 16.2%; change in vivo at 0.6 mg/kg ([6]; 10 h): 17.3%; change in vivo at 0.6 mg/kg ([6]; 24 h): 21.1%; change in vivo at 0.6 mg/kg ([6]; 48 h): 9.96%; Gait Score ([8]; 2 h): 0; Gait Score ([8]; 4 h): 0; Gait Score ([8]; 8 h): 0**; Gait Score ([8]; 10 h): 0.1**; Gait Score ([8]; 24 h): 0; Gait Score ([8]; 48 h): 0; Gait versus model group, in words [8]: significant improvement in gait occurred at different time points
3 | CNC(=O)c1ccc2c(cc1=O)[C@@H](NC(C)=O)CCc1cc(OC)c(OC)c(OC)c1-2 [Compound 48, (S)-7-acetamido-1,2,3-trimethoxy-N-methyl-9-oxo-5,6,7,9-tetrahydrobenzo[a]heptalene-10-carboxamide] | 57.0% | 580 ng·h/mL | 0.641 h | 1.11 L/kg | 29.2 mL/min/kg | 3300 ng·h/mL | 1930 ng/mL | 1.83 h | 0.25 h | 1.61 h | 0.536 h | 81.6% | > 600 mg/kg | 0/6 | 0/6 | 0/6 | 0/6 | 82.2% | 9.42% | 110% | change in vivo at 0.6 mg/kg ([6]; 4 h): 15.5%; change in vivo at 0.6 mg/kg ([6]; 8 h): 21%; change in vivo at 0.6 mg/kg ([6]; 10 h): 21.5%; change in vivo at 0.6 mg/kg ([6]; 24 h): 22.4%; change in vivo at 0.6 mg/kg ([6]; 48 h): 13.6%; Gait Score ([8]; 2 h): 0; Gait Score ([8]; 4 h): 0.1; Gait Score ([8]; 8 h): 0.1**; Gait Score ([8]; 10 h): 0**; Gait Score ([8]; 24 h): 0*; Gait Score ([8]; 48 h): 0; Gait versus model group, in words [8]: significant improvement in gait occurred at different time points
4 | CCNC(=O)c1ccc2c(cc1=O)[C@@H](NC(C)=O)CCc1cc(OC)c(OC)c(OC)c1-2 [Compound 55, (S)-7-acetamido-1,2,3-trimethoxy-N-ethyl-9-oxo-5,6,7,9-tetrahydrobenzo[a]heptalen-10-carboxamide] | 115% | 543 ng·h/mL | 0.592 h | 1.1 L/kg | 31.2 mL/min/kg | 6260 ng·h/mL | 2040 ng/mL | 2.72 h | 0.333 h | 2.02 h | 0.6 h | 86.4% | > 600 mg/kg | 0/6 | 0/6 | 0/6 | 0/6 | 133% |  | 128% | 
